Measurements reported in patent publication EP1957493B1, “8-AZABICYCLO[3.2.1]OCTANE DERIVATIVES USEFUL AS MONOAMINE REUPTAKE INHIBITORS” (N.V. Organon, priority 2005, dated 2007).
Read-outs that look alike come from different tables or passages of the source.

Columns and labels:
Assay type in all cases: cell-based
[1] = target: T1, human dopamine transporter (hDAT) (Homo sapiens, UniProt Q01959); test: Assay of monoamine uptake: inhibition of dopamine uptake
T1 construct: expressed in transfected cells
Protocol: (§1) The in vitro test for the inhibition of dopamine and serotonin uptake was performed in Chinese Hamster Ovary cells expressing the human dopamine transporter (hDAT) or the human serotonin transporter (hSERT). The in vitro test for the inhibition of noradrenaline uptake was performed in Madin Darby Canine Kidney Cells (MDCK) expressing the human noradrenaline transporter (hNET).
(§2) Briefly, cell lines stably overexpressing the appropriate human transporter were propagated and plated according to standard cell culture techniques. Following plating, cells were left to adhere for either one or two days. A 6-point serial dilution (normally 1 E-5M to 1E-10M) of test and reference compounds was prepared, added to the washed cells and incubated for 5 minutes at ambient temperature for dopamine or serotonin transporter overexpressing and 37°C for noradrenaline overexpressing cells. Next, a final concentration of 20 nM of appropriate neurotransmitter (mixture of [^3H]-neurotransmitter and non-labelled neurtoransmitter) was added and the cells were incubated for three or five minutes at ambient temperature for dopamine or serotonin transporter overexpressing cells or ten minutes at 37°C for noradrenaline overexpressing cells. Following termination of the assay, Microscint-20 was added directly to the cells and the amount of radioactivity taken up by the cells was estimated by scintillation counting.
(§3) pEC50 values indicating inhibition of monoamine uptake were calculated using standard curve fitting techniques.

[2] = target: T2, human serotonin transporter (hSERT) (Homo sapiens, UniProt P31645); test: Assay of monoamine uptake: inhibition of serotonin uptake
T2 construct: expressed in transfected cells
Protocol: as §1, §2, §3

[3] = target: T3, human noradrenaline transporter (hNET) (Homo sapiens, UniProt P23975); test: Assay of monoamine uptake: inhibition of noradrenaline uptake
T3 construct: expressed in transfected cells
Protocol: as §1, §2, §3

[4] = inhibition of dopamine uptake, Chinese Hamster Ovary cells expressing hDAT, 20 nM neurotransmitter ([3H]-labelled and non-labelled), ambient temperature, read-out: hDAT
[5] = inhibition of serotonin uptake, Chinese Hamster Ovary cells expressing hSERT, 20 nM neurotransmitter ([3H]-labelled and non-labelled), ambient temperature, read-out: hSERT
[6] = inhibition of noradrenaline uptake, Madin Darby Canine Kidney Cells (MDCK) expressing hNET, 20 nM neurotransmitter ([3H]-labelled and non-labelled), 37°C, read-out: hNET

T3 sequence (P23975 whole entry): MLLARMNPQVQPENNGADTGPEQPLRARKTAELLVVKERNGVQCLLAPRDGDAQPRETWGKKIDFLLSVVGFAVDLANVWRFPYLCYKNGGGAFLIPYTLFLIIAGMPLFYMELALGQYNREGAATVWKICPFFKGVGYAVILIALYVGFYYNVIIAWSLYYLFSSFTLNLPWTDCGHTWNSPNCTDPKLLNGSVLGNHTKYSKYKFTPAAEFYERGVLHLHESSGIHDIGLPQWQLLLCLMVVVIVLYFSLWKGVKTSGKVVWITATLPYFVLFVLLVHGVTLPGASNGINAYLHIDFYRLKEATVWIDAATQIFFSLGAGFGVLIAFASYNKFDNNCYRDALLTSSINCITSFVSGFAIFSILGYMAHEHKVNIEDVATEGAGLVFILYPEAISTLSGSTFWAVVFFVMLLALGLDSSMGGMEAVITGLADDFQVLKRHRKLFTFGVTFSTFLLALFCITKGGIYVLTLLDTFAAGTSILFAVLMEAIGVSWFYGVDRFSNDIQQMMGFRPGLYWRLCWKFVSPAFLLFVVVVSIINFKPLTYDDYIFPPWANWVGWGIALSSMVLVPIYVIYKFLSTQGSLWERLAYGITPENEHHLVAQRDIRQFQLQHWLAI
T1 sequence (Q01959 whole entry): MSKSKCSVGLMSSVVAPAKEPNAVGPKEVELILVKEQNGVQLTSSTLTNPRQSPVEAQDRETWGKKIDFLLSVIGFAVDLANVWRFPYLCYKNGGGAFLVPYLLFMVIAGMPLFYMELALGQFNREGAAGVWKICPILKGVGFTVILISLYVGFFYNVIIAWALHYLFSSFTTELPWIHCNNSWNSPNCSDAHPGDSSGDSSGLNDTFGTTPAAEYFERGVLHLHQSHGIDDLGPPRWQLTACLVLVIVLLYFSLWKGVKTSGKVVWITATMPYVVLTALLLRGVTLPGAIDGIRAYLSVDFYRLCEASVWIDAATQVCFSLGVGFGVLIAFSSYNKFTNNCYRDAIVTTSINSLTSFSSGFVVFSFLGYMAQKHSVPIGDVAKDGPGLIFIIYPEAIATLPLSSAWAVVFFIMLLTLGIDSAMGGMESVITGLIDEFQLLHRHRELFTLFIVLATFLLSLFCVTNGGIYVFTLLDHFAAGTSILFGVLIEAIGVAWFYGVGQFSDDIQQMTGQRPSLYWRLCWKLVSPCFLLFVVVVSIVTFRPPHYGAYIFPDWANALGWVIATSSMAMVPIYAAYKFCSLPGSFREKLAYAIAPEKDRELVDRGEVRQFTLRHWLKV
T2 sequence (P31645 whole entry): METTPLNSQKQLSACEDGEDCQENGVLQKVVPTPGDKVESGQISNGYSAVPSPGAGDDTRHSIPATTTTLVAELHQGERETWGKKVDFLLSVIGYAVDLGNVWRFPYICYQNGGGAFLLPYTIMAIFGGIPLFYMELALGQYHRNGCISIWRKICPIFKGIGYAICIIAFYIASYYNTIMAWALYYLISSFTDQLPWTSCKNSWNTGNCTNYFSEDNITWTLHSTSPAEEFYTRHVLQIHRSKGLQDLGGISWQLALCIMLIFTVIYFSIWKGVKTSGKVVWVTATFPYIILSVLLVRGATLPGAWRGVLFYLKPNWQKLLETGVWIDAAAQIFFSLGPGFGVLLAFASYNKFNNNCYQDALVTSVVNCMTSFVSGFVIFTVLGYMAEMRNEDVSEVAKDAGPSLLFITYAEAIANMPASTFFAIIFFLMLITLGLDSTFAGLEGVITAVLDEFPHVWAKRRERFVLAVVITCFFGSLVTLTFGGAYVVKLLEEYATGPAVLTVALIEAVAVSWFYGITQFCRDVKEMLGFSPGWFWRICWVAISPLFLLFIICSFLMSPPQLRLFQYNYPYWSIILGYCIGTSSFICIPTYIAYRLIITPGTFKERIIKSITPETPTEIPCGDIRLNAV

Compound | EC50 [1, 4] [µM] | EC50 [2, 5] [µM] | EC50 [3, 6] [µM] | EC50 [1] [µM] | EC50 [2] [µM] | EC50 [3] [µM]
FC(F)(F)c1ccccc1-c1cccc(OC2CC3CCC(C2)N3)c1 (stereo not drawn) [IV.8, 3-exo-(2'-Trifluoromethylbiphenyl-3-yloxy)-8-azabicyclo[3.2.1]octane] | > 1 | 0.1 to 1 | < 0.1 |  |  | 
N#Cc1ccc(-c2cc(C#N)cc(OC3CC4CCC(C3)N4)c2)cc1 (stereo not drawn) [VI.8, exo 5-(8-Azabicyclo[3.2.1]oct-3-yloxy)-biphenyl-3,4'-dicarbonitrile] | > 1 | < 0.1 | > 1 |  |  | 
N#Cc1ccc(-c2cc(C#N)cc(OC3CC4CCC(C3)N4)c2)nc1 (stereo not drawn) [Example IX.3, exo 6-(3-(8-Azabicyclo[3.2.1]oct-3-yloxy)-5-cyanophenyl)nicotinonitrile] | > 1 | < 0.1 | > 1 |  |  | 
c1ccc(Oc2cccc(OC3CC4CCC(C3)N4)c2)cc1 (stereo not drawn) [Example 111.5, 3-endo-(3-Phenoxyphenoxy)-8-azabicyclo[3.2.1]octane] |  |  |  | < 0.1 | > 1 | 0.1 to 1
COc1cc(Oc2ccccc2)cc(OC2CC3CCC(C2)N3)c1F (stereo not drawn) [IV.9, 3-exo-(2-Fluoro-3-methoxy-5-phenoxyphenoxy)-8-azabicyclo[3.2.1]octane] | < 0.1 | > 1 | < 0.1 |  |  | 
Clc1cc(Oc2ccccc2)cc(O[C@@H]2C[C@H]3CC[C@@H](C2)N3)c1 [IV.19, 3-exo-(3-Chloro-5-phenoxyphenoxy)-8-azabicyclo[3.2.1]octane] | < 0.1 | > 1 | < 0.1 |  |  | 
FC(F)(F)c1ccc(OC2CC3CCC(C2)N3)cc1-c1ccccc1 (stereo not drawn) [VI.3, 3-exo-(6-Trifluoromethylbiphenyl-3-yloxy)-8-azabicyclo[3.2.1]octane] | > 1 | 0.1 to 1 | > 1 |  |  | 
